Data reported in US20130310256A1, “HERBICIDAL COMPOSITIONS COMPRISING 4-AMINO-3-CHLORO-5-FLUORO-6-(4-CHLORO-2-FLUORO-3-METHOXYPHENYL) PYRIDINE-2-CARBOXYLIC ACID OR A DERIVATIVE THEREOF AND VLCFA AND LIPID SYNTHESIS INHIBITING HERBICIDES” (DOW AGROSCIENCES LLC, priority 2008, published 2013).

How the values were obtained:
BRAPP = experiment: Example I: postemergence foliar-applied weed control, direct seeded rice weeds, greenhouse; format: in vivo; conditions: 20 DAA
Excerpt: (§1) Seeds or nutlets of the desired test plant species were planted in a soil matrix prepared by mixing a loam or sandy loam soil (e.g., 28.6 percent silt, 18.8 percent clay, and 52.6 percent sand, with a pH of about 5.8 and an organic matter content of about 1.8 percent) and calcareous grit in an 80 to 20 ratio. The soil matrix was contained in plastic pots with a volume of 1 quart and a surface area of 83.6 square centimeters (cm^2). When required to ensure good germination and healthy plants, a fungicide treatment and/or other chemical or physical treatment was applied. The plants were grown for 8-22 days in a greenhouse with an approximate 14 hr photoperiod which was maintained at about 29° C. during the day and 26° C. during the night. Nutrients (Peters Excel® 15-5-15 5-Ca 2-Mg and iron chelate) were applied in the irrigation solution as needed and water was added on a regular basis. Supplemental lighting was provided with overhead metal halide 1000-Watt lamps as necessary. The plants were employed for testing when they reached the first through fourth true leaf stage.
(§2) Treatments consisted of the acid or esters of 4-amino-3-chloro-5-fluoro-6-(4-chloro-2-fluoro-3-methoxy-phenyl)pyridine-2-carboxylic acid (Compound A), each formulated as an SC (suspension concentrate), and various herbicidal components alone and in combination. Forms of compound A were applied on an acid equivalent basis.
(§3) Other herbicidal components were applied on an active ingredient basis and included very long chain fatty acid (VLCFA) synthesis-inhibiting and fatty acid/lipid synthesis-inhibiting herbicides acetochlor (technical grade material), acetochlor+dichlormid formulated as Topnotch®, pretilachlor (technical grade material), butachlor formulated as Butachlor EC, fentrazamide formulated as Fentrazamide EC, thiobencarb formulated as Bolero® 8EC, cafenstrole formulated as Himeadow® WP or Lapost® Flowable, benfuresate formulated as Full Shot®, dimethenamid-P formulated as Outlook®, indanofan (technical grade material), flufenacet formulated as Define® DF, mefenacet (technical grade material), S-metolachlor formulated as Dual® II Magnum, pethoxamid formulated as Successor® 600, and pyroxasulfone (technical grade material).
(§4) Treatment requirements were calculated based upon the rates being tested, the concentration of active ingredient or acid equivalent in the formulation, and a 12 mL application volume at a rate of 187 L/ha.
(§5) For treatments comprised of formulated compounds, measured amounts of compounds were placed individually in 25 mL glass vials and diluted in a volume of 1.25% (v/v) Agri-Dex® crop oil concentrated to obtain 12× stock solutions. […] Application solutions were prepared by adding an appropriate amount of each stock solution (e.g., 1 mL) and diluted to the appropriate final concentrations with the addition of 10 mL of an aqueous mixture of 1.25% (v/v) crop oil concentrate so that the final spray solutions contained 1.25+/−0.05% (v/v) crop oil concentrate.
(§6) For treatments comprised of technical compounds, weighed amounts can be placed individually in 25 mL glass vials and dissolved in a volume of 97:3 v/v acetone/DMSO to obtain 12× stock solutions. […] Application solutions can be prepared by adding an appropriate amount of each stock solution (e.g., 1 mL) and diluted to the appropriate final concentrations with the addition of 10 mL of an aqueous mixture of 1.5% (v/v) crop oil concentrate so that the final spray solutions contain 1.25% (v/v) crop oil concentrate. When technical materials are used, the concentrated stock solutions can be added to the spray solutions so that the final acetone and DMSO concentrations of the application solutions are […], respectively. […]

ECHOR = experiment: Example II: in-water applied weed control, transplanted paddy rice, greenhouse; format: in vivo, Echinochloa oryzoides (Ard.) Fritsch (early watergrass); conditions: 100 gai/ha
Method: (§7) Weed seeds or nutlets of the desired test plant species were planted in puddled soil (mud) prepared by mixing a shredded, non-sterilized mineral soil (50.5 percent silt, 25.5 percent clay, and 24 percent sand, with a pH of about 7.6 and an organic matter content of about 2.9 percent) and water at a 1:1 volumetric ratio. The prepared mud was dispensed in 365 mL aliquots into 16-ounce (oz.) non-perforated plastic pots with a surface area of 86.59 square centimeters (cm^2) leaving a headspace of 3 centimeters (cm) in each pot. Mud was allowed to dry overnight prior to planting or transplanting. Rice seeds were planted in Sun Gro MetroMix® 306 planting mixture, which typically has a pH of 6.0 to 6.8 and an organic matter content of about 30 percent, in plastic plug trays. Seedlings at the second or third leaf stage of growth were transplanted into 840 mL of mud contained in 32-oz. non-perforated plastic pots with a surface area of 86.59 cm^2 4 days prior to herbicide application. The paddy was created by filling the headspace of the pots with 2.5 to 3 cm of water. When required to ensure good germination and healthy plants, a fungicide treatment and/or other chemical or physical treatment was applied. The plants were grown for 4-22 days in a greenhouse with an approximate 14 hr photoperiod which was maintained at about 29′C during the day and 26° C. during the night. Nutrients were added as Osmocote® (19:6:12, N:P:K+ minor nutrients) at 2 g per 16-oz. pot and 4 g per 32-oz. pot. Water was added on a regular basis to maintain the paddy flood, and supplemental lighting was provided with overhead metal halide 1000-Watt lamps as necessary. The plants were employed for testing when they reached the first through fourth true leaf stage.
as §2, with “(compound A)” for “(Compound A),”, “concentrate)” for “concentrate),”
(§8) The herbicidal components were applied on an active ingredient basis and included very long chain fatty acid (VLCFA) synthesis-inhibiting and fatty acid/lipid synthesis-inhibiting herbicides acetochlor (technical grade material), acetochlor+dichlormid formulateded as Topnotch®, pretilachlor (technical grade material), butachlor formulated as Butachlor EC, fentrazamide formulated as Fentrazamide EC, thiobencarb formulated as Bolero® 8EC, cafenstrole formulated as Himeadow® WP or Lapost® Flowable, benfuresate formulated as Full Shot®, anilofos (technical grade material), mefenacet (technical grade material), molinate (technical grade material), and thenylchlor (technical grade material).
(§9) Treatment requirements for each compound or herbicidal component were calculated based upon the rates being tested, the concentration of active ingredient or acid equivalent in the formulation, an application volume of 2 mL per component per pot, and an application area of 86.59 cm^2 per pot.
(§10) For formulated compounds, a measured amount was placed in an individual 100 or 200 mL glass vial and was dissolved in a volume of 1.25% (v/v) Agri-Dex® crop oil concentrate to obtain application solutions.
(§11) For technical grade compounds, a weighed amount was placed in an individual 100 to 200 mL glass vial and was dissolved in a volume of acetone to obtain concentrated stock solutions. […] The concentrated stock solutions obtained were diluted with an equivalent volume of an aqueous mixture containing 2.5% (v/v) crop oil concentrate so that the final application solutions contained 1.25% (v/v) crop oil concentrate.
(§12) Applications were made by injecting with a pipetter appropriate amounts of the application solutions, individually and sequentially, into the aqueous layer of the paddy. Control plants were treated in the same manner with the solvent blank. […]

FIMMI = experiment: as above; format: in vivo, Fimbristylis miliacea (L.) Vahl (globe fringerush)
Method: as §7
as §2, with “(compound A)” for “(Compound A),”, “concentrate)” for “concentrate),”
as §8, §9, §10, §11, §12

DIGSA = experiment: Example I: postemergence foliar-applied weed control, greenhouse; format: in vivo, Digitaria sanguinalis (L.) Scop. (large crabgrass); conditions: 20 DAA
Excerpt: as §1, §2, §3, §4, §5, §6

ECHCG [1] = experiment: as above; format: in vivo, Echinochloa crus-galli (L.) Beauv. (barnyardgrass); conditions: 20 DAA
Excerpt: as §1, §2, §3, §4, §5, §6

ECHCG [2] = experiment: Example II: in-water applied weed control, transplanted paddy rice, greenhouse; format: in vivo, Echinochloa crus-galli (L.) Beauv. (barnyardgrass); conditions: 100 gai/ha
Method: as §7
as §2, with “(compound A)” for “(Compound A),”, “concentrate)” for “concentrate),”
as §8, §9, §10, §11, §12

CYPRO = experiment: as above; format: in vivo, Cyperus rotundus L. (purple nutsedge)
Method: as §7
as §2, with “(compound A)” for “(Compound A),”, “concentrate)” for “concentrate),”
as §8, §9, §10, §11, §12

IPOHE = experiment: Example IV: pre-emergence soil-applied weed control, greenhouse; format: in vivo, Ipomoea hederacea Jacq. (ivyleaf morningglory); conditions: 27 DAA
Excerpt: Seeds or nutlets of the desired test plant species were planted in a soil matrix prepared by mixing a loam soil (32 percent silt, 23 percent clay, and 45 percent sand, with a pH of about 6.5 and an organic matter content of about 1.9 percent) and calcareous grit in an 80 to 20 ratio. The soil matrix was contained in plastic pots with a volume of 1 quart and a surface area of 83.6 square centimeters (cm^2).
as §2, with “benzyl ester” for “acid or esters”, “(compound A)” for “(Compound A), each”, “concentrate)” for “concentrate),”
Other herbicidal components were applied on an active ingredient basis and included very long chain fatty acid (VLCFA) synthesis-inhibiting and fatty acid/lipid synthesis-inhibiting herbicides alachlor (technical grade material), dimethenamid-P formulated as Outlook®, and S-metolachlor formulated as Dual® II Magnum.
as §4
as §5, with “oil concentrate (COC)” for “oil concentrated”, “(v/v) COC” for “(v/v) crop oil concentrate”, “contained 1.25%” for “contained 1.25+/−0.05%”, “(v/v) COC.” for “(v/v) crop oil concentrate.”
For treatments comprised of technical compounds, weighed amounts can be placed individually in 25 mL glass vials and dissolved in a volume of 97:3 (v/v) acetone/DMSO to obtain 12× stock solutions. […] Application solutions can be prepared by adding an appropriate amount of each stock solution (e.g., 1 mL) and diluted to the appropriate final concentrations with the addition of 10 mL of an aqueous mixture of 1.5% (v/v) COC so that the final spray solutions contain 1.25% (v/v) COC. When technical materials are used, the concentrated stock solutions can be added to the spray solutions so that the final acetone and DMSO concentrations of the application solutions are 16.2% and 0.5%, respectively.
For treatments comprised of formulated and technical compounds, weighed amounts of the technical materials were placed individually in 25 mL glass vials and dissolved in a volume of 97:3 (v/v) acetone/DMSO to obtain 12× stock solutions, and measured amounts of the formulated compounds were placed individually in 25 mL glass vials and diluted in a volume of 1.5% (v/v) COC or water to obtain 12× stock solutions. […] Application solutions were prepared by adding an appropriate amount of each stock solution (e.g., 1 mL) and diluted to the appropriate final concentrations with the addition of an appropriate amount of an aqueous mixture of 1.5% (v/v) COC so that the final spray solutions contained 1.25% (v/v) COC. As required, additional water and/or 97:3 (v/v) acetone/DMSO was added to individual application solutions so that the final acetone and DMSO concentrations of the application solutions being compared were 8.1% and 0.25%, respectively.
All stock solutions and applications solutions were visually inspected for compound compatibility prior to application. Spray solutions were applied to the soil with an overhead Mandel track sprayer equipped with a 8002E nozzles calibrated to deliver 187 L/ha over an application area of 0.503 m^2 at a spray height of 18 inches (46 cm) above average pot height. Control pots were sprayed in the same manner with the solvent blank.
The treated and control pots were placed in a greenhouse and top watered as needed. […]

Compound	Visual Weed Control Obs (BRAPP; 100 gai/ha) [%]	Visual Weed Control Obs (BRAPP; 200 gai/ha) [%]	Visual Weed Control (%) - 20 DAA ECHOR Obs (ECHOR) [%]	Visual Weed Control (%) - 20 DAA FIMMI Obs (FIMMI; 100 gai/ha) [%]	Visual Weed Control (%) - 20 DAA FIMMI Obs (FIMMI; 200 gai/ha) [%]	Visual Weed Control Obs (DIGSA; 100 gai/ha) [%]	Visual Weed Control Obs (DIGSA; 200 gai/ha) [%]	Visual Weed Control Obs (ECHCG [1]; 50 gai/ha) [%]	Visual Weed Control Obs (ECHCG [1]; 100 gai/ha) [%]	Visual Weed Control (%) - 22 DAA ECHCG Obs (ECHCG [2]) [%]	Visual Weed Control (%) - 20 DAA CYPRO Obs (CYPRO; 100 gai/ha) [%]	Visual Weed Control (%) - 20 DAA CYPRO Obs (CYPRO; 200 gai/ha) [%]	Visual Weed Control IPOHE Obs (IPOHE; 1240 gai/ha) [%]	Visual Weed Control IPOHE Obs (IPOHE; 2480 gai/ha) [%]
CCOCN(C(=O)CCl)c1c(C)cccc1CC [Acetochlor, 2-chloro-N-(ethoxymethyl)-N-(2-ethyl-6-methylphenyl)acetamide]	20	30	80	80	20	20	20	0	10	65	20	75	–	–
CCc1cccc(CC)c1N(COC)C(=O)CCl [Alachlor, 2-chloro-N-(2,6-diethylphenyl)-N-(methoxymethyl)acetamide]	–	–	–	–	–	–	–	–	–	–	–	–	5	13
